Experimental findings from US9168259B2 (GRÜNENTHAL GMBH, priority 2010, dated 2015) are described below.

In one experiment the test system is rat. The experiment in a line: Low-intensity tail flick test (rat). The experiment is classed as in vivo. To be noted: po, peroral. The procedure: Method II. Low-Intensity Tail Flick Test (Rat)
In the low-intensity tail flick test, the determination of the antinociceptive effect of the compounds according to the invention towards an acute noxious thermal stimulus is carried out by measuring the withdrawal reflex of the rat tail (tail flick) in response to a radiant heat beam (analgesia meter; model 2011 of the company Rhema Labortechnik, Hofheim, Germany) according to the method described by D'Amour and Smith (J. Pharm. Exp. Ther. 72, 74 79 (1941). To this end, the rats were placed in a plexiglass restrainer, and a low-intensity radiant heat beam (48° C.) was focused onto the dorsal surface of the tail root. The stimulus intensity was adjusted to result in a mean pre-drug control withdrawal latency of about 7 s, thus also allowing a supraspinal modulation of the spinally mediated acute nociceptive reflex. A cutoff time of 30 s was applied to avoid tissue damage. Male Sprague-Dawley rats (Janvier, Le Genest St. Isle, Frankreich) with weights of 200-250 g were used. 10 rats were used per group. Before administration of a compound according to the invention, the animals were pre-tested twice in the course of five minutes and the mean of these measurements was calculated as the pre-test mean. The antinociceptive effect was determined at 20, 40 and 60 min after peroral compound administration. The antinociceptive effect was calculated based on the increase in the tail withdrawal latency according to the following formula and is expressed as percentage of the maximum possible effect (MPE [%]): MPE=[(T1−T0)/(T2−T0)]*100
In this, T0 is the control latency time before and T1 the latency time after administration of the compound, T2 is the cutoff time and MPE is the maximum possible effect. Employing variant analysis (repeated measures ANOVA) allowed testing of statistically significant differences between the compounds according to the invention and the vehicle group. The significance level was set to p≦0.05. To determine the dose dependency, the particular compound according to the invention was administered in 3-5 logarithmically increasing doses, including a threshold dose and a maximum effective dose, and the ED50 values were determined with the aid of regression analysis. The ED50 calculation was performed at the time of maximum efficacy (usually 20 min after administration of the compounds).
On the technique in general: Thermal pain tests record how soon the animal reacts.

Another experiment addresses T1, KCNQ2/3 channels (Homo sapiens, UniProt O43525+O43526).
T1 construct: expressed in transfected cells
Briefly: Fluorescence assay using a voltage sensitive dye (fluorimetry). The experiment is classed as cell-based.

[1] abbreviates: CHO-K1, plateau effect relative to saturated retigabine (50 μM) = 100%, CHO-K1 cells expressing KCNQ2/3, negative values = antagonistic, read-out: Fluorimetry % efficacy (retigabine = 100%).
Setting [2] is: CHO-K1 cells expressing KCNQ2/3, IC50 where % efficacy is negative, read-out: Fluorimetry EC50/IC50.
[3] abbreviates: MPE = % of maximum possible effect.
Where [4] appears, read: CHO-K1, read-out: Fluorimetry % efficacy (retigabine = 100%).

The structures appear in SMILES notation. Where two headings read alike, the source gives them in different places.

T1 sequence (O43526 whole entry): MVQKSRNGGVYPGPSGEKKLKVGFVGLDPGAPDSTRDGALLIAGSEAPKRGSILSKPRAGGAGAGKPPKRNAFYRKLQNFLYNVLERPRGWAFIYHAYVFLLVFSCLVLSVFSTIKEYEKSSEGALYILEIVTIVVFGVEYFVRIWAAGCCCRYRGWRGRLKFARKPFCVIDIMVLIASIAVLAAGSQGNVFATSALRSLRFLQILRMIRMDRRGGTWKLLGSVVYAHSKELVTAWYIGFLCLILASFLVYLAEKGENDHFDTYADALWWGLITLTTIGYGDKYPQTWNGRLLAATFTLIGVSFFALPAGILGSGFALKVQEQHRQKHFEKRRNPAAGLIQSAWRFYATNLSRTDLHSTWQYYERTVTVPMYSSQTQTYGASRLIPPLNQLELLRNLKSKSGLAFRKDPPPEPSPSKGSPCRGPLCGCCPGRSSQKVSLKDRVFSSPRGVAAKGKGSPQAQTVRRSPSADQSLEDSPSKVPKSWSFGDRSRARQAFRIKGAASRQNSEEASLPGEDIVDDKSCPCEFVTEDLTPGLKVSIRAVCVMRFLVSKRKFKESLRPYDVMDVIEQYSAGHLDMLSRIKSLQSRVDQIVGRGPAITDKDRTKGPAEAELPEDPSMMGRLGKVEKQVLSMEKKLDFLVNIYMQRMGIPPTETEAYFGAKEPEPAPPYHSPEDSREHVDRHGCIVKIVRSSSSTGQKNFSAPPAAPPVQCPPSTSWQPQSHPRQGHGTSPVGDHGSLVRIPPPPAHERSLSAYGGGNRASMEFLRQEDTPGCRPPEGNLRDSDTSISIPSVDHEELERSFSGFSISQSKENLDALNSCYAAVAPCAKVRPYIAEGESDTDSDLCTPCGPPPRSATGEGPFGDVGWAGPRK
T1 sequence (O43525 whole entry): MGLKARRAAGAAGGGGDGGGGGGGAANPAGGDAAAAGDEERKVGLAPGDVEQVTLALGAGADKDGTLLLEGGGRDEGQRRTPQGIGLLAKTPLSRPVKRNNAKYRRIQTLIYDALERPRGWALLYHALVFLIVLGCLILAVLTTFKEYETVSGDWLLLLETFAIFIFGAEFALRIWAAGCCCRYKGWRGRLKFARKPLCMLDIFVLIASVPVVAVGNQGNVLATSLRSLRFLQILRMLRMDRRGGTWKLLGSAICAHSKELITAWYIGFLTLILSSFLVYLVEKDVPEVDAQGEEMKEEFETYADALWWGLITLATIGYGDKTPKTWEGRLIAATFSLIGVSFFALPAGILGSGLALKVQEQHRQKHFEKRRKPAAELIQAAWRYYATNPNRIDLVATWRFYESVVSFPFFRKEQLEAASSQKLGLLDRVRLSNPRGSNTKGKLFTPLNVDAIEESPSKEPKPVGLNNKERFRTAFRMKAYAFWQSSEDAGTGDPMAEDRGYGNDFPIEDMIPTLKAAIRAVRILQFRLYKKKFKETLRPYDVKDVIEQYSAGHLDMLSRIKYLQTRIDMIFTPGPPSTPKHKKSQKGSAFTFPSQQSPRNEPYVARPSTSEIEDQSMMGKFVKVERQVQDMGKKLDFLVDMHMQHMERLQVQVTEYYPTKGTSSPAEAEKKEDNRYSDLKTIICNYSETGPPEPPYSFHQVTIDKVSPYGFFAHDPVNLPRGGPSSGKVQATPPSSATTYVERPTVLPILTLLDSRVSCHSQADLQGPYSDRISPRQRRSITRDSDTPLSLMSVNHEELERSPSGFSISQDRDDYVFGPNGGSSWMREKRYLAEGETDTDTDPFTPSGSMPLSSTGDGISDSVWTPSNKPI

Molecule `CCSc1nc(N2CCOCC2)cc(C)c1C(=O)NCc1cc(F)cc(F)c1` [Example 1, N-[(3,5-Difluoro-phenyl)-methyl]-2-ethylsulfanyl-4-methyl-6-morpholin-4-yl-pyridine-3-carboxylic acid amide] had an inhibition in vivo at 4.64 mg/kg in the experiment on rat (dose 4.64 mg/kg, MPE = % of maximum possible effect) of 78%. In addition, the Emax at KCNQ2/3 channels (setting [1]) was found to be 160%. Besides, the EC50 at KCNQ2/3 channels (setting [2]) was 56 nM.

In the experiment on rat (ED50 at time of maximum efficacy), `CCSc1nc(N2CCOCC2)cc(C)c1C(=O)NCc1cccc(F)c1` [Example 2, 2-ethylsulfanyl-N-[(3-fluorophenyl)-methyl]-4-methyl-6-morpholin-4-yl-pyridine-3-carboxylic acid amide] showed an ED50 of 4.3 mg/kg. Also, the Emax on KCNQ2/3 channels (setting [1]) is 171%. The EC50 on KCNQ2/3 channels (setting [2]) turned out to be 134 nM.

Regarding `CCSc1nc(N2CCOCC2)cc(C)c1C(=O)NCc1ccc(F)cc1` [Example 4, 2-Ethylsulfanyl-N-[(4-fluorophenyl)-methyl]-4-methyl-6-morpholin-4-yl-pyridine-3-carboxylic acid amide], in the experiment with rat (setting [3]), the inhibition in vivo at 10 mg/kg stood at 94%. The Emax on KCNQ2/3 channels (setting [1]) was 158%. For the same molecule, the EC50 at KCNQ2/3 channels (setting [2]) came out at 124 nM.

In the experiment on rat (setting [3]), `CCCc1nc(N2CCOCC2)cc(C)c1C(=O)NCc1cccc(F)c1` [Example 10, N-[(3-Fluorophenyl)-methyl]-4-methyl-6-morpholin-4-yl-2-propyl-pyridine-3-carboxylic acid amide] registered an inhibition in vivo at 10 mg/kg of 81%. Besides, at KCNQ2/3 channels (setting [1]), the Emax came out at 176%. In addition, the EC50 at KCNQ2/3 channels (setting [2]) worked out at 181 nM.

Molecule `COc1nc(N2CCOCC2)cc(C)c1C(=O)NCc1cccc(F)c1` [Example 19, N-[(3-Fluorophenyl)-methyl]-2-methoxy-4-methyl-6-morpholin-4-yl-pyridine-3-carboxylic acid amide] came in with an inhibition in vivo at 10 mg/kg in the experiment with rat (setting [3]) of 79%. In addition, on KCNQ2/3 channels (setting [1]), the Emax worked out at 155%. Moreover, the EC50 on KCNQ2/3 channels (setting [2]) came to 736 nM.

Molecule `CCOc1nc(N2CCOCC2)cc(C)c1C(=O)NCc1cccc(F)c1` [Example 38, 2-Ethoxy-N-[(3-fluorophenyl)-methyl]-4-methyl-6-morpholin-4-yl-pyridine-3-carboxylic acid amide] gave an inhibition in vivo at 10 mg/kg with rat (setting [3]) of 61%. Besides, the Emax on KCNQ2/3 channels (setting [1]) amounted to 144%. In addition, the EC50 at KCNQ2/3 channels (setting [2]) turned out to be 219 nM.

For the molecule `CSc1nc(N2CCOCC2)cc(C)c1C(=O)NCc1cccc(F)c1` [Example 40, N-[(3-Fluorophenyl)-methyl]-4-methyl-2-methylsulfanyl-6-morpholin-4-yl-pyridine-3-carboxylic acid amide], the inhibition in vivo at 10 mg/kg in the experiment on rat (setting [3]) amounted to 84%. Further, on KCNQ2/3 channels (setting [1]), the Emax was found to be 168%. In addition, the EC50 at KCNQ2/3 channels (setting [2]) was 587 nM.

On to `CCSc1nc(N2CCOCC2)cc(C)c1C(=O)NCc1ccc(F)c(F)c1` [Example 41, N-[(3,4-Difluoro-phenyl)-methyl]-2-ethylsulfanyl-4-methyl-6-morpholin-4-yl-pyridine-3-carboxylic acid amide], for which testing at 6.81 mg/kg in the experiment with rat (dose 6.81 mg/kg, MPE = % of maximum possible effect) gave an inhibition in vivo of 92%. Besides, at KCNQ2/3 channels (setting [1]), the Emax is 169%. Also, on KCNQ2/3 channels (setting [2]), the EC50 was 69 nM.

`CCSc1nc(N2CCOCC2)cc(C)c1C(=O)NCCCC(C)(C)C` [Example 67, N-(4,4-Dimethyl-pentyl)-2-ethylsulfanyl-4-methyl-6-morpholin-4-yl-pyridine-3-carboxylic acid amide] displayed an inhibition in vivo at 10 mg/kg in the experiment on rat (setting [3]) of 100%. Also, the Emax on KCNQ2/3 channels (setting [1]) was 244%. Further, at KCNQ2/3 channels (setting [2]), the EC50 was 42 nM.

`CCSc1nc(N2CCOCC2)cc(C)c1C(=O)NCCCC(C)C` [Example 79, 2-Ethylsulfanyl-4-methyl-N-(4-methyl-pentyl)-6-morpholin-4-yl-pyridine-3-carboxylic acid amide]: testing at 10 mg/kg with rat (setting [3]) gave an inhibition in vivo of 46%. Further, the Emax at KCNQ2/3 channels (setting [1]) stood at 215%. Further, at KCNQ2/3 channels (setting [2]), the EC50 was determined as 206 nM.

`COCCc1nc(N2CCOCC2)cc(C)c1C(=O)NCCCC(C)(C)C` [Example 358, N-(4,4-Dimethyl-pentyl)-2-(2-methoxy-ethyl)-4-methyl-6-morpholin-4-yl-pyridine-3-carboxylic acid amide] showed an EC50 at KCNQ2/3 channels of 1130 nM. In addition, on KCNQ2/3 channels (setting [4]), the Emax was found to be 234%.

In turn, `CCc1cc(N2CCOCC2)nc(CC)c1C(=O)NCc1ccc(Cl)cc1` [Example 359, N-[(4-Chlorophenyl)-methyl]-2,4-diethyl-6-morpholin-4-yl-pyridine-3-carboxylic acid amide] yielded an EC50 at KCNQ2/3 channels of 237 nM. For the same molecule, on KCNQ2/3 channels (setting [4]), the Emax amounted to 141%.

In general, inhibition in vivo refers to the drop in the measured response relative to a control, in per cent. In general, ED50 refers to the midpoint of the dose-response relation. A low value points to an effect at a small dose.
